The target of one assay is Ion channel NompC (Danio rerio, UniProt Q7T1G6). Nature of the assay: Dose response cell-based high-throughput screening assay for agonists of the transient receptor potential channel N1 (TRPN1). [Related pubchem assays (depositor defined):AID1424, AID1448]. The assay is classed as functional.
Another assay has as its target Mucolipin-3 (Homo sapiens, UniProt Q8TDD5). Nature of the assay: Fluorescence counterscreen assay for […] agonists: dose response cell-based high-throughput screening assay to identify agonists of the transient receptor potential channel ML3 (TRPML3). [Related pubchem assays: 1424, 1448 ]. The class given is functional.
The target of another assay is T1, Coagulation factor XII (Homo sapiens, UniProt P00748).
T1 sequence (P00748 whole entry): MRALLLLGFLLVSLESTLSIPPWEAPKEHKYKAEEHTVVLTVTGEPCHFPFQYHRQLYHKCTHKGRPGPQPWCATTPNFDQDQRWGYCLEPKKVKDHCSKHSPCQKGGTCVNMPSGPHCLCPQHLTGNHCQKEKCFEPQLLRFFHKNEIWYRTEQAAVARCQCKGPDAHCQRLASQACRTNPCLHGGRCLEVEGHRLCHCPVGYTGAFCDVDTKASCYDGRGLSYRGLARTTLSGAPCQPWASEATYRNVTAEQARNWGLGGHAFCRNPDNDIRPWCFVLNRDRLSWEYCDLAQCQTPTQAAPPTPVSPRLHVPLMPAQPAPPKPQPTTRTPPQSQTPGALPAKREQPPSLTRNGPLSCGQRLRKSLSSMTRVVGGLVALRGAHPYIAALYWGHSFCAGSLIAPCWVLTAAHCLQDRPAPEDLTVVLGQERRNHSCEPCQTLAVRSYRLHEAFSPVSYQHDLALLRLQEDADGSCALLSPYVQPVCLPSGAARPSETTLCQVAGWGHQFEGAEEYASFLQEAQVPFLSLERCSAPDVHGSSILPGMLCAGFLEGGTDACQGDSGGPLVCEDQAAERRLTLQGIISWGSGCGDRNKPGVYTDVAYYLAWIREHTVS
Nature of the assay: Factor XIIa Dose Response Confirmation from Single Well HTS. [Related pubchem assays (depositor defined):AID701]. The assay is classed as functional.

Assay [1] concerns the target T2, Runt-related transcription factor 1/Core-binding factor subunit beta (Homo sapiens, UniProt Q01196+Q13951). Nature of the assay: disruptors of Runt domain/CBFb-SMMHC interaction – biochemical, FRET, Cerulean-Runt, Venus-CBFb-SMMHC, uHTS, […] (AID 1434). The class given is protein assay.
Assay [2] deals with T3, Polyadenylate-binding protein 1 (Homo sapiens, UniProt P11940). The assay is described as follows: MLLE domain peptide-binding blockers, IC50 – biochemical, fluorescence polarization, FITC-PAM2 peptide, dose response (AID 602259). The assay is classed as functional. To be noted: read-out: IC50_Mean. In general terms: Polarisation of emitted light reports the rotation of a fluorescent probe.

For assay [3], the target named is T2, Runt-related transcription factor 1/Core-binding factor subunit beta. The assay is described as follows: Runt domain/CBFb-SMMHC interaction disruptors – biochemical, TR-FRET (AID 1438). The class given is protein assay. (Time-resolved FRET reads energy transfer from a long-lived donor to a nearby acceptor.)
The target in assay [4] is T3, Polyadenylate-binding protein 1. The assay is described as follows: MLLE binding blockers, Cy5 peptide tracer – biochemical, fluorescence polarization, Cy5-PAM2 peptide, secondary, miRNA deadenylation inhibitor project, dose response (AID 602260). The assay is classed as functional. The settings on record: read-out: IC50_Mean.

Structures are written as SMILES. Calls of active or inactive are those of the source.

T2 sequence (Q01196 whole entry, the tested form may be a part): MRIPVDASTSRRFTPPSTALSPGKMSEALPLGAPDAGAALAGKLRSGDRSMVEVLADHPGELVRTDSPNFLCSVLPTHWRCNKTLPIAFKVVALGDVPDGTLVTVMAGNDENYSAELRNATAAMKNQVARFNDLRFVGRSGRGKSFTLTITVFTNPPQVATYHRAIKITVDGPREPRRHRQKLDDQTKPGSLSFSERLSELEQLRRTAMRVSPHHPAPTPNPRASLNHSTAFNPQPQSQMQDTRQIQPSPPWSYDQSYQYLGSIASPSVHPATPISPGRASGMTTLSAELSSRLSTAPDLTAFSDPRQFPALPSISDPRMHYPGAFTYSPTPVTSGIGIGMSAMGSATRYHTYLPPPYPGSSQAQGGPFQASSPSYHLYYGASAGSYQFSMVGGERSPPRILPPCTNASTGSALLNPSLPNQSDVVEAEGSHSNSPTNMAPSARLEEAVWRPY
T2 sequence (Q13951 whole entry, the tested form may be a part): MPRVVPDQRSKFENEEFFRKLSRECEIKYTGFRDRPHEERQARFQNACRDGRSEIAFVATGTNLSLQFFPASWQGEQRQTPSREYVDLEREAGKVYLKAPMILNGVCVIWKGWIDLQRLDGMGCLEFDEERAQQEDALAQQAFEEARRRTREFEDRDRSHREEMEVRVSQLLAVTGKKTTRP
T3 sequence (P11940 whole entry, the tested form may be a part): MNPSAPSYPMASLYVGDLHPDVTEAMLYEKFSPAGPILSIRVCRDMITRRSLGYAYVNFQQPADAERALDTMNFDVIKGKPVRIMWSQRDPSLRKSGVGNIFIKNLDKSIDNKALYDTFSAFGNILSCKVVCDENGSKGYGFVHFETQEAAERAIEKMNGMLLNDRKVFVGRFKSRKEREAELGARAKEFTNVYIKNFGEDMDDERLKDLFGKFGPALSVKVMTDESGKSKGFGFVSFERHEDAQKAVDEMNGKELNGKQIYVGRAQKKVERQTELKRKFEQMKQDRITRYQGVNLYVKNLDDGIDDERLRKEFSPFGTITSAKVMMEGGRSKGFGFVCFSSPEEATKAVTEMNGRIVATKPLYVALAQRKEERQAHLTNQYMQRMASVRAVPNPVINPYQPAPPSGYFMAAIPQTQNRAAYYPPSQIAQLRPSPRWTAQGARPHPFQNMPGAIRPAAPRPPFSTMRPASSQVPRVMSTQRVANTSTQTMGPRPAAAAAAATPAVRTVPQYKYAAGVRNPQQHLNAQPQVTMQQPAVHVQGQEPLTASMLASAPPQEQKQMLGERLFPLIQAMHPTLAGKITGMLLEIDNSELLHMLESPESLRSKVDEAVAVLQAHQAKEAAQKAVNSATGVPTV
Sequence of Ion channel NompC (Q7T1G6 whole entry): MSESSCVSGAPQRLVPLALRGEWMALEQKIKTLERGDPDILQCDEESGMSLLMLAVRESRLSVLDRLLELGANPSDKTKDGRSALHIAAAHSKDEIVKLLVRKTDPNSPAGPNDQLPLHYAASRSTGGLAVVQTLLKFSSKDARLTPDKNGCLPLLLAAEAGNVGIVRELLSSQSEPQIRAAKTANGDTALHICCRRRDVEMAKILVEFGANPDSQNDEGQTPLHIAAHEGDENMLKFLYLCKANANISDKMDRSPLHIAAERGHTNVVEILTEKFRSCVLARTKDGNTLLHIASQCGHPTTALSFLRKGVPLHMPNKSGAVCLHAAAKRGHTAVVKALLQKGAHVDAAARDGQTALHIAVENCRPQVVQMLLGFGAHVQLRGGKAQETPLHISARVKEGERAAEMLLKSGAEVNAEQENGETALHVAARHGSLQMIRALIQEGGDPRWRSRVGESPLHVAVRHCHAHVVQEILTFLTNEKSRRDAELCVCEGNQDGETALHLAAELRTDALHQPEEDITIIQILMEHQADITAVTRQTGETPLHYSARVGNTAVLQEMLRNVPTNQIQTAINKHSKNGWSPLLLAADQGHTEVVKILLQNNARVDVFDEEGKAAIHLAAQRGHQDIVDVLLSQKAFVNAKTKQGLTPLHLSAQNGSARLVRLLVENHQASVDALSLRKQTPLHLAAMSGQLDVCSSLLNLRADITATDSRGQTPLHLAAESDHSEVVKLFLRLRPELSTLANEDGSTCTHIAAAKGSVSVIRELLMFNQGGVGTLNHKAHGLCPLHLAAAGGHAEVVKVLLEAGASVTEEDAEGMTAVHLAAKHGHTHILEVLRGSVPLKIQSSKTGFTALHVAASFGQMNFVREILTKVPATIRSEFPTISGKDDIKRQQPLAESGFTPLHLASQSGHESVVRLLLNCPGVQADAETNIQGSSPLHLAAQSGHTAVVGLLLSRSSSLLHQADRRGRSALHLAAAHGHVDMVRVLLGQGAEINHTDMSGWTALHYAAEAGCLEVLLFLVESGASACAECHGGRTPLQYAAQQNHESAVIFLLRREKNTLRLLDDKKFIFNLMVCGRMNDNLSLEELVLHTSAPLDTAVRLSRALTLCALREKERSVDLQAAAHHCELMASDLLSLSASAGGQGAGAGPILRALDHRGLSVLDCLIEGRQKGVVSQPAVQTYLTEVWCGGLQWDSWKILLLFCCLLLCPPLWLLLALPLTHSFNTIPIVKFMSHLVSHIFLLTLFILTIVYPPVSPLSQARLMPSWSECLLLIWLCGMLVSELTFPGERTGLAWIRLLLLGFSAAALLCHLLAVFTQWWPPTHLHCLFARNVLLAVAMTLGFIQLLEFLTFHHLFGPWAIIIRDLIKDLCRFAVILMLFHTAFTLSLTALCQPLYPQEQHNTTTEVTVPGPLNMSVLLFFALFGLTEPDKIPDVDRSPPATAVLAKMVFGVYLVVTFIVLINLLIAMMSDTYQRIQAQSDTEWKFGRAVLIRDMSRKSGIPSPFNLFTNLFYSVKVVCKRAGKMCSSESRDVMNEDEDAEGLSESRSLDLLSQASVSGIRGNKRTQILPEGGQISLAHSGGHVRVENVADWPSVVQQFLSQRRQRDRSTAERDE
Sequence of Mucolipin-3 (Q8TDD5 whole entry): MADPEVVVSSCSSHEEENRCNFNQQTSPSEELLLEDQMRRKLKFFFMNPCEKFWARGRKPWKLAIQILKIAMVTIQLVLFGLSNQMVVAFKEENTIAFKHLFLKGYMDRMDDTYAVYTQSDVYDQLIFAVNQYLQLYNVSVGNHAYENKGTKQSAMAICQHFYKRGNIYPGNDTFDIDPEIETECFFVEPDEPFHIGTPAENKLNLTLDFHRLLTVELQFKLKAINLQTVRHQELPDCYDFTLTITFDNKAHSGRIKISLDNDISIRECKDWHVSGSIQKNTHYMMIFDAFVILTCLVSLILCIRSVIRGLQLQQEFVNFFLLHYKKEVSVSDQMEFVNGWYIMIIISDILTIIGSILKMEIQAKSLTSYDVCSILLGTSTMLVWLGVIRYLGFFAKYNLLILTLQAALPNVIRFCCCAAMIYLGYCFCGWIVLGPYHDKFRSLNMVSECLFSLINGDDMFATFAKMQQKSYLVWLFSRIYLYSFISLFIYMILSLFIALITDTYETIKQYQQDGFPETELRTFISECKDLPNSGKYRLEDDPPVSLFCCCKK

Regarding `COCc1nnc(SCC(=O)NCc2ccccc2)n1-c1ccccc1`, the EC50 is > 29.9 µM (inactive) on Ion channel NompC and > 29.9 µM (not active) at Mucolipin-3.
With `Cc1cc(OC(=O)c2ccco2)c2c(C)cc(=O)oc2c1`, the IC50 at Coagulation factor XII was > 50 µM (inconclusive).
With `N#Cc1cc2c(=O)n3ccccc3nc2n(Cc2ccco2)/c1=N/C(=O)c1ccco1`, the IC50 was 1.67 µM (active) in assay [1], > 66 µM (inactive) in assay [2], 56.1 µM (inactive) in assay [3] and > 66 µM (inactive) in assay [4].

As usually defined, the EC50 is the concentration at which the effect is half-maximal.

The values above are taken from ChEMBL document CHEMBL1201862, “PubChem BioAssay data set” (2004).
